Experimental findings from patent publication US12173088B2, “Anti-microbial peptides” (priority 2018, dated 2024) are described below.

A short description of data set [1]: in vivo. As to the method:
The efficacy of the two peptides was also investigated in non-neutropenic mice against S. aureus USA300. A higher bacterial inoculum at 2×10^8 CFU per mouse was used. […] To evaluate the peptide pharmacokinetics (Chhonker, et al. (2018) Biomed. Chromatogr. e4389), the plasma clearance rate of horine after intravenous injection of 10 mg/kg into BALB/c mice was followed.

Data set [2] concerns Klebsiella pneumoniae clinical strains. In words: microbe, parasite or virus in culture. The following applies: clinical strains.
Data set [3] deals with K. pneumoniae ATCC 13883. The format is cell-based, Klebsiella pneumoniae. The following applies: ATCC 13883. The method in brief:
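Broth microdilution in tryptic soy broth: log-phase cultures (OD600 ≈0.5) diluted to OD600 0.001, given two-fold peptide dilutions, incubated overnight at 37° C. Growth read at 630 nm.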

In data set [4] the test system is E. coli ATCC 25922. The format is cell-based, Escherichia coli. The following applies: ATCC 25922. The method in brief:
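Peptides, serially diluted two-fold, were incubated overnight at 37 °C with E. coli ATCC 25922 from log-phase cultures adjusted to OD600 0.001. Turbidity at 630 nm served as the read-out in this broth microdilution format.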

The subject of data set [5] is S. aureus USA300 biofilms. The following applies: 25 μM; 24 hour formed static biofilms.
Experimental: The antibiofilm activity of the peptide against 24 hours established biofilms was evaluated. In short, S. aureus USA300 (10^5 CFU/mL) was made from exponential phase bacteria in TSB media and 200 μL was distributed to each well of the microtiter plate (Corning Costar Cat No. 3595). The plates were incubated at 37° C. for 24 hours to form biofilm. Culture treated with water served as a positive control while media without bacterial inoculation served as the negative control. Media was then pipetted out and the attached biofilms were washed with 1×PBS to remove the planktonic bacteria. Each well of the plate was then filled with 20 μL of 10× peptide solution and 180 μL of fresh TSB media and the plates were further incubated at 37° C. for 24 hours. Media was then pipetted out and the wells were washed with 1×PBS to remove planktonic cells. Live cells in the biofilms were then quantitated using XTT [2,3-bis(2-methyloxy-4-nitro-5-sulfophenyl)-2H-tertazolium-5-carboxanilide] assay by following the manufacturer's instructions with modifications. 180 μL of fresh TSB and 20 μL of XTT solution was added to each well and the plates were again incubated at 37° C. for 2 hours. Absorbance at 450 nm (only media with XTT containing wells served as the blank) was obtained using a ChroMate® microtiter plate reader. […]
For data set [6], the system named is clinical strains of methicillin-resistant and susceptible S. aureus. In words: microbe, parasite or virus in culture. The following applies: Staphylococcus aureus.

Each structure is given as a SMILES string. In brackets after ≈: the same amount, converted by molar mass. Peptide text beside a SMILES is read from it.

For `CC(C)C[C@H](NC(=O)[C@H](Cc1c[nH]c2ccccc12)NC(=O)[C@H](Cc1c[nH]c2ccccc12)NC(=O)[C@@H](N)Cc1c[nH]c2ccccc12)C(=O)N[C@@H](CCCNC(=N)N)C(=O)N[C@@H](CCCNC(=N)N)C(=O)N[C@@H](CCCNC(=N)N)C(=O)N[C@@H](Cc1c[nH]c2ccccc12)C(N)=O` [Horine, WWWLRRRW] (H-WWWLRRRW-NH2; N-terminus and C-terminus assumed), the “Time to become undetectable in plasma” value in data set [1] (10 mg/kg i.v.) was at most 1 h. The level at 5 min in data set [1] (BALB/c, mouse, plasma, iv, 10 mg/kg) came out at 266 ng/mL. For the same molecule, the MIC in data set [2] is above 64 µM. The “MIC K. pneumonia ATCC 13883” value in data set [3] was above 25 µM.

Consider `CC(C)C[C@H](NC(=O)[C@H](CC(C)C)NC(=O)[C@H](CCCCN)NC(=O)[C@H](CC(C)C)NC(=O)CNC(=O)[C@H](CC(C)C)NC(=O)[C@H](CO)NC(=O)[C@H](CC(C)C)NC(=O)[C@H](CC(C)C)NC(=O)[C@H](CC(C)C)NC(=O)[C@H](CCCCN)NC(=O)[C@H](CC(C)C)NC(=O)CN)C(N)=O` [DFT561, GLKLLLSLGLKLL] (H-GLKLLLSLGLKLL-NH2; N-terminus and C-terminus assumed), for which the “MIC EC (E. coli ATCC 25922)” value in data set [4] was above 25 µM. Besides, the “S. aureus killed in biofilms” value in data set [5] came to 60%.

Turning to `CN[C@H](CC(C)C)C(=O)N[C@H]1C(=O)N[C@@H](CC(N)=O)C(=O)N[C@H]2C(=O)N[C@H]3C(=O)N[C@H](C(=O)N[C@H](C(=O)O)c4cc(O)cc(O)c4-c4cc3ccc4O)[C@H](O)c3ccc(c(Cl)c3)Oc3cc2cc(c3O[C@@H]2O[C@H](CO)[C@@H](O)[C@H](O)[C@H]2O[C@H]2C[C@](C)(N)[C@H](O)[C@H](C)O2)Oc2ccc(cc2Cl)[C@H]1O` [Vancomycin], the MIC in data set [6] (MSSA, strain B243-16 MSSA) is 0.5 µM (≈ 0.725 µg/mL); in data set [6] (MSSA, strain B254-16 MSSA), 0.5 µM (≈ 0.725 µg/mL); in data set [6] (MSSA, strain B255-16 MSSA), 1 µM (≈ 1.45 µg/mL); in data set [6] (MSSA, strain B262-16 MSSA) it was 0.5 µM (≈ 0.725 µg/mL); in data set [6] (MSSA, strain B269-16 MSSA), 1 µM (≈ 1.45 µg/mL); in data set [6] (NEWMAN, strain Newman) it was 1 µM (≈ 1.45 µg/mL). The MIC is 0.5 µM (≈ 0.725 µg/mL) in data set [6] (USA200, strain USA200); 0.5 µM (≈ 0.725 µg/mL) in data set [6] (USA300, strain USA300); 1 µM (≈ 1.45 µg/mL) in data set [6] (USA400, strain USA400); 1 µM (≈ 1.45 µg/mL) in data set [6] (strain M106-16); 1 µM (≈ 1.45 µg/mL) in data set [6] (strain M108-16); 0.5 µM (≈ 0.725 µg/mL) in data set [6] (strain M109-16). For the same molecule, the MIC in data set [6] (strain M111-16) came to 0.5 µM (≈ 0.725 µg/mL); in data set [6] (strain M112-16), 0.5 µM (≈ 0.725 µg/mL); in data set [6] (strain M113-16), 1 µM (≈ 1.45 µg/mL); in data set [6] (strain M114-16), 1 µM (≈ 1.45 µg/mL); in data set [6] (strain M116-16), 0.5 µM (≈ 0.725 µg/mL); in data set [6] (strain M117-16) it was 0.5 µM (≈ 0.725 µg/mL). Further, the MIC in data set [6] (strain M118-16) is 1 µM (≈ 1.45 µg/mL); in data set [6] (strain M119-16), 0.5 µM (≈ 0.725 µg/mL); in data set [6] (strain M120-16), 0.5 µM (≈ 0.725 µg/mL); in data set [6] (strain M121-16) it was 1 µM (≈ 1.45 µg/mL); in data set [6] (strain M122-16), 1 µM (≈ 1.45 µg/mL); in data set [6] (strain M123-16), 0.5 µM (≈ 0.725 µg/mL). Moreover, the MIC in data set [6] (strain M126-16) was 0.5 µM (≈ 0.725 µg/mL); in data set [6] (strain M127-16) it was 0.5 µM (≈ 0.725 µg/mL); in data set [6] (strain M128-16), 1 µM (≈ 1.45 µg/mL); in data set [6] (strain M129-16), 0.5 µM (≈ 0.725 µg/mL); in data set [6] (strain M130-16), 0.5 µM (≈ 0.725 µg/mL); in data set [6] (strain UAMS-1), 2 µM (≈ 2.9 µg/mL). Besides, the MIC in data set [6] (strain mu50) was 2 µM (≈ 2.9 µg/mL).
